Measurements taken from ChEMBL document CHEMBL1139986, “Synthesis and biodistribution of 8-iodo-11-(4-methylpiperazino)-5H-dibenzo[b,e][1,4]-diazepine: Iozapine” (Bioorg Med Chem Lett, 2007).

Tests used:
Brain [1] = assay: Biodistribution in BALB/c mouse brain at 7 to 8 KBq, iv after 60 mins; format: ADME, organism-based; conditions: in vivo, 1 h
Hippocampus [2] = assay: Biodistribution in BALB/c mouse hippocampus at 7 to 8 KBq, iv after 60 mins; format: ADME, organism-based; conditions: in vivo, 1 h
Pancreas [3] = assay: Biodistribution in BALB/c mouse pancreas at 7 to 8 KBq, iv after 120 mins; format: ADME, organism-based; conditions: in vivo, 2 h
Brain [4] = assay: Biodistribution in BALB/c mouse brain at 7 to 8 KBq, iv after 5 mins; format: ADME, organism-based; conditions: in vivo
Thyroid gland [5] = assay: Biodistribution in BALB/c mouse thyroid at 7 to 8 KBq, iv after 120 mins; format: ADME, organism-based; conditions: in vivo, 2 h
Hippocampus [6] = assay: Biodistribution in BALB/c mouse hippocampus at 7 to 8 KBq, iv after 120 mins; format: ADME, organism-based; conditions: in vivo, 2 h
Striatum [7] = assay: Biodistribution in BALB/c mouse striatum at 7 to 8 KBq, iv after 5 mins; format: ADME, organism-based; conditions: in vivo
Cortex [8] = assay: Biodistribution in BALB/c mouse cortex at 7 to 8 KBq, iv after 5 mins; format: ADME, organism-based; conditions: in vivo
Stomach [9] = assay: Biodistribution in BALB/c mouse stomach at 7 to 8 KBq, iv after 15 mins; format: ADME, organism-based; conditions: in vivo, 0.25 h
Heart [10] = assay: Biodistribution in BALB/c mouse heart at 7 to 8 KBq, iv after 5 mins; format: ADME, organism-based; conditions: in vivo
Stomach [11] = assay: Biodistribution in BALB/c mouse stomach at 7 to 8 KBq, iv after 60 mins; format: ADME, organism-based; conditions: in vivo, 1 h
Spleen [12] = assay: Biodistribution in BALB/c mouse spleen at 7 to 8 KBq, iv after 60 mins; format: ADME, organism-based; conditions: in vivo, 1 h
Lung [13] = assay: Biodistribution in BALB/c mouse lung at 7 to 8 KBq, iv after 5 mins; format: ADME, organism-based; conditions: in vivo
Pancreas [14] = assay: Biodistribution in BALB/c mouse pancreas at 7 to 8 KBq, iv after 60 mins; format: ADME, organism-based; conditions: in vivo, 1 h
Striatum [15] = assay: Biodistribution in BALB/c mouse striatum at 7 to 8 KBq, iv after 120 mins; format: ADME, organism-based; conditions: in vivo, 2 h
Spleen [16] = assay: Biodistribution in BALB/c mouse spleen at 7 to 8 KBq, iv after 5 mins; format: ADME, organism-based; conditions: in vivo
Blood [17] = assay: Biodistribution in BALB/c mouse blood at 7 to 8 KBq, iv after 5 mins; format: ADME, organism-based; conditions: in vivo
Mus musculus [18] = assay: Biodistribution in BALB/c mouse lower body at 7 to 8 KBq, iv after 15 mins; format: ADME, organism-based; conditions: in vivo, 0.25 h
Intestine [19] = assay: Biodistribution in BALB/c mouse intestine at 7 to 8 KBq, iv after 15 mins; format: ADME, organism-based; conditions: in vivo, 0.25 h
Lung [20] = assay: Biodistribution in BALB/c mouse lung at 7 to 8 KBq, iv after 15 mins; format: ADME, organism-based; conditions: in vivo, 0.25 h
Medulla [21] = assay: Biodistribution in BALB/c mouse medulla at 7 to 8 KBq, iv after 60 mins; format: ADME, organism-based, Medulla of organ; conditions: in vivo, 1 h
Mus musculus [22] = assay: Biodistribution in BALB/c mouse upper body at 7 to 8 KBq, iv after 120 mins; format: ADME, organism-based; conditions: in vivo, 2 h
Blood [23] = assay: Biodistribution in BALB/c mouse blood at 7 to 8 KBq, iv after 60 mins; format: ADME, organism-based; conditions: in vivo, 1 h
Cortex [24] = assay: Biodistribution in BALB/c mouse cortex at 7 to 8 KBq, iv after 120 mins; format: ADME, organism-based; conditions: in vivo, 2 h
Medulla [25] = assay: Biodistribution in BALB/c mouse medulla at 7 to 8 KBq, iv after 120 mins; format: ADME, organism-based, Medulla of organ; conditions: in vivo, 2 h
Medulla [26] = assay: Biodistribution in BALB/c mouse medulla at 7 to 8 KBq, iv after 5 mins; format: ADME, organism-based, Medulla of organ; conditions: in vivo
Thalamus = assay: Biodistribution in BALB/c mouse thalamus at 7 to 8 KBq, iv after 15 mins; format: ADME, organism-based; conditions: in vivo, 0.25 h
Medulla [27] = assay: Biodistribution in BALB/c mouse medulla at 7 to 8 KBq, iv after 15 mins; format: ADME, organism-based, Medulla of organ; conditions: in vivo, 0.25 h
Striatum [28] = assay: Biodistribution in BALB/c mouse striatum at 7 to 8 KBq, iv after 15 mins; format: ADME, organism-based; conditions: in vivo, 0.25 h
Mus musculus [29] = assay: Biodistribution in BALB/c mouse upper body at 7 to 8 KBq, iv after 15 mins; format: ADME, organism-based; conditions: in vivo, 0.25 h
Liver [30] = assay: Biodistribution in BALB/c mouse liver at 7 to 8 KBq, iv after 15 mins; format: ADME, organism-based; conditions: in vivo, 0.25 h
Liver [31] = assay: Biodistribution in BALB/c mouse liver at 7 to 8 KBq, iv after 5 mins; format: ADME, organism-based; conditions: in vivo
Thyroid gland [32] = assay: Biodistribution in BALB/c mouse thyroid at 7 to 8 KBq, iv after 60 mins; format: ADME, organism-based; conditions: in vivo, 1 h
Pancreas [33] = assay: Biodistribution in BALB/c mouse pancreas at 7 to 8 KBq, iv after 15 mins; format: ADME, organism-based; conditions: in vivo, 0.25 h
Heart [34] = assay: Biodistribution in BALB/c mouse heart at 7 to 8 KBq, iv after 120 mins; format: ADME, organism-based; conditions: in vivo, 2 h
Intestine [35] = assay: Biodistribution in BALB/c mouse intestine at 7 to 8 KBq, iv after 60 mins; format: ADME, organism-based; conditions: in vivo, 1 h
Intestine [36] = assay: Biodistribution in BALB/c mouse intestine at 7 to 8 KBq, iv after 5 mins; format: ADME, organism-based; conditions: in vivo
Heart [37] = assay: Biodistribution in BALB/c mouse heart at 7 to 8 KBq, iv after 60 mins; format: ADME, organism-based; conditions: in vivo, 1 h

Drug uptake (Brain [1]): 0.8 %ID
Drug uptake (Hippocampus [2]): 2.52 %ID
Drug uptake (Pancreas [3]): 0.16 %ID
Drug uptake (Brain [4]): 3.49 %ID
Drug uptake (Thyroid gland [5]): 1.3 %ID
Drug uptake (Hippocampus [6]): 0.27 %ID
Drug uptake (Striatum [7]): 7.28 %ID
Drug uptake (Cortex [8]): 7.22 %ID
Drug uptake (Stomach [9]): 3.56 %ID
Drug uptake (Heart [10]): 0.6 %ID
Drug uptake (Stomach [11]): 7.35 %ID
Drug uptake (Spleen [12]): 0.13 %ID
Drug uptake (Lung [13]): 4.01 %ID
Drug uptake (Pancreas [14]): 0.34 %ID
Drug uptake (Striatum [15]): 0.2 %ID
Drug uptake (Spleen [16]): 0.37 %ID
Drug uptake (Blood [17]): 4.17 %ID
Drug uptake (Mus musculus [18]): 15.02 %ID
Drug uptake (Intestine [19]): 17.73 %ID
Drug uptake (Lung [20]): 1.6 %ID
Drug uptake (Medulla [21]): 1.2 %ID
Drug uptake (Mus musculus [22]): 5.72 %ID
Drug uptake (Blood [23]): 3.49 %ID
Drug uptake (Cortex [24]): 0.22 %ID
Drug uptake (Medulla [25]): 0.16 %ID
Drug uptake (Medulla [26]): 6.78 %ID
Drug uptake (Thalamus): 6.15 %ID
Drug uptake (Medulla [27]): 5.23 %ID
Drug uptake (Striatum [28]): 6.76 %ID
Drug uptake (Mus musculus [29]): 17.41 %ID
Drug uptake (Liver [30]): 10.38 %ID
Drug uptake (Liver [31]): 11.12 %ID
Drug uptake (Thyroid gland [32]): 0.68 %ID
Drug uptake (Pancreas [33]): 1.02 %ID
Drug uptake (Heart [34]): 0.05 %ID
Drug uptake (Intestine [35]): 35.19 %ID
Drug uptake (Intestine [36]): 9.16 %ID
Drug uptake (Heart [37]): 0.13 %ID
SMILES: CN1CCN(C2=Nc3cc([125I])ccc3Nc3ccccc32)CC1 [[125I]I-OZAPINE]
